Data from PubChem BioAssay AID463107 (The Scripps Research Institute Molecular Screening Center, 2010).

Each molecule was assayed against Sphingosine 1-phosphate receptor 4 (Homo sapiens) (UniProt O95977) (assay: S1P4 receptor agonists, human, late-stage follow-up, cell-based, fluorescence, synthesized compounds (AID 463107)). Conditions: S1P4 cell-based agonist assay.
Sequence of Sphingosine 1-phosphate receptor 4 (Homo sapiens) (O95977 whole entry, looked up): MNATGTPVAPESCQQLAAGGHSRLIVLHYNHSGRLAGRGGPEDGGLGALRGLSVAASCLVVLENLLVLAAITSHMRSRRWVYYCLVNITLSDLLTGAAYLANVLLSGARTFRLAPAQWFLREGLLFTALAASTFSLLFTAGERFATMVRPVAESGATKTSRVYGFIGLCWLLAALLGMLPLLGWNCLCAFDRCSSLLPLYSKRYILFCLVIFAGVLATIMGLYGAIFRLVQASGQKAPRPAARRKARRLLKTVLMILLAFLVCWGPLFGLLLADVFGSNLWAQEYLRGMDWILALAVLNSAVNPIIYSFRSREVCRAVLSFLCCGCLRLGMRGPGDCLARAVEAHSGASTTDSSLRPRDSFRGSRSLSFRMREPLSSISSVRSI
Work on `COc1ccc(OCCOc2ccc(C)nc2[N+](=O)[O-])c(Cl)c1` yielded an EC50 of 3900 nM.
In the case of `Cc1ccc(OCCOc2c(Cl)cc(Cl)cc2Cl)c([N+](=O)[O-])n1`, the EC50 is reported as 570 nM.
For `Cc1ccc(OCCOc2ccc(Cl)cc2Cl)c(Br)n1`, the EC50 was 52 nM.
Work on `Cc1ccc(OCCOc2ccc(Cl)cc2Cl)c([N+](=O)[O-])n1` yielded an EC50 of 162 nM.
Work on `FCc1ccc(OCCOc2ccc(Cl)cc2Cl)c(Cl)n1` yielded an EC50 of 45.5 nM.
`Clc1ccc(OCCOc2ccc(Br)nc2Br)c(Cl)c1` gave an EC50 of 46.3 nM.
For `Cc1ccc(OCCOc2ccc(C)nc2[N+](=O)[O-])c(C)c1`, the EC50 was 7200 nM.
